Reference: patent US20080138437A1, “Antitumor Agent” (priority 2004, published 2008)
Counter-ions that a name gives are not always drawn. Like-named read-outs stand apart in the source and are kept apart here.

Key:
[1] = in vivo; settings: BDF1, mouse, sc
[2] = tested on: 15 types of human cancer cells; test: Cell growth inhibition test, MTT, average GI 50; type: cell-based; settings: average of 15 human cancer cell types, 48 hours exposure
Experimental: Appropriate amounts of each of the human cancer cells suspended in 5% fetal bovine serum-supplemented medium were plated into a 96-well plate, and allowed to adhere to the wells in a 37° C. CO2 incubator overnight.
These cancer cells were exposed to each anticancer agent for 48 hours. Cell growth was assayed by MTT. Absorbance of the control well (C) and the test well (T) was measured at 550 nm.
The absorbance of the test well immediately after adding the drug (TO) was also measured. Using these measured values, GI 50 of each drug was calculated, and the drug concentration at that time was obtained. For comparison, a similar test was performed for each of the anticancer agents (Comparative Tests 4-1 to 4-7).

[3] = in vivo; settings: male, C57BL/6, mouse
[4] = tested on: HCT-15 colon cancer cells; test: Antitumor test, transplanted tumor in nude mice; type: in vivo, human; settings: control, drug without hydroxyapatite adsorption
Source text: (§1) (Experimental Test 5-1 to 5-5).
(§2) Female nude mice (7 weeks old, 16 to 22 g) with a BALB/c genetic background were used for the tests. Human cancer cells used for the tests were GCIY stomach cancer cells, HCT-15 colon cancer cells, A549 lung cancer cells, and OVCAR-3 ovarian cancer cells. Human cancer cells were subcutaneously transplanted into nude mice, tumor lumps were formed, and these carcinomas were used for the tests.
(§3) Aseptically collected tumors were sliced into tumors of 3×3×3 mm, and then subcutaneously transplanted into a new nude mouse. When the tumors reached a volume of 100 to 300 mm^3, the animals were arbitrarily divided into groups of six (Day 0). […] Intravascular administration was the administration route for all.
(§4) After administration, between Days 24 to 31, the length (L) and width (W) of the tumor lump of the animal were measured twice a week, and the tumor volume (TV) was calculated according to the following formula: TV=(L×W^2)/2. Antitumor effect was determined at Day 14. The relative tumor volume (RTV) was obtained by the following formula: RTV=TV14/TV0, using values of the tumor volume at Day 0 and Day 14 (referred to as TV0 and TV14). Antitumor effect was evaluated as the tumor regression rate at Day 14 (T/C%). Herein, T/C %=100×(average RTV of the treated group)/(RTV of the control group).
(§5) As a control, each drug was tested without hydroxyapatite adsorption (Comparative Tests 5-10 to 5-14).

[5] = tested on: A549 lung cancer cells; test: Antitumor test, transplanted tumor in nude mice; type: in vivo, human; settings: control, drug without hydroxyapatite adsorption
Source text: as §1, §2, §3, §4, §5

[6] = tested on: OVCAR-3 ovarian cancer cells; test: Antitumor test, transplanted tumor in nude mice; type: in vivo, human; settings: control, drug without hydroxyapatite adsorption
Source text: as §1, §2, §3, §4, §5

[7] = tested on: GCIY stomach cancer cells; test: Antitumor test, transplanted tumor in nude mice; type: in vivo, human; settings: control, drug without hydroxyapatite adsorption
Source text: as §1, §2, §3, §4, §5

[8] = tested on: C57BL/6 male mouse; settings: one-time, 14 days observation
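Wherever deaths versus administered animals is given: mice given a single dose and followed for 14 days, with deaths tallied, LD50 derived from the doses given and the resulting death counts.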

SMILES | LD50 [1] [mg/kg] | GI50 [2] [µM] | LD50 [3] [mg/kg] | Regression rate of transplanted cancer (T/C %) at Day 14 [4] [%] | Regression rate of transplanted cancer (T/C %) at Day 14 [5] [%] | Regression rate of transplanted cancer (T/C %) at Day 14 [6] [%] | Regression rate of transplanted cancer (T/C %) at Day 14 [7] [%] | deaths versus administered animals ([8]; 1.0 mg/kg intravascular) | deaths versus administered animals ([8]; 1.5 mg/kg intravascular) | deaths versus administered animals ([8]; 2.0 mg/kg intravascular) | deaths versus administered animals ([8]; 3.0 mg/kg intravascular) | deaths versus administered animals ([8]; 3.5 mg/kg intravascular) | deaths versus administered animals ([8]; 50 mg/kg intravascular) | deaths versus administered animals ([8]; 100 mg/kg intravascular) | deaths versus administered animals ([8]; 150 mg/kg intravascular) | deaths versus administered animals ([8]; 200 mg/kg intravascular) | deaths versus administered animals ([8]; 250 mg/kg intravascular) | deaths versus administered animals ([8]; 300 mg/kg intravascular) | deaths versus administered animals ([8]; 350 mg/kg intravascular) | deaths versus administered animals ([8]; 400 mg/kg intravascular)
Cc1ncc(CNC(=O)N(CCCl)N=O)c(N)n1 [Nimustine hydrochloride] | 50 | – | – | – | – | – | – | – | – | – | – | – | – | – | – | – | – | – | – | –
COc1cccc2c1C(=O)c1c(O)c3c(c(O)c1C2=O)C[C@@](O)(C(=O)CO)C[C@@H]3O[C@H]1C[C@H](N)[C@H](O)[C@H](C)O1 [Doxorubicin] | 10 | 0.072 | – | – | – | – | – | – | – | – | – | – | – | – | – | – | – | – | – | –
CC[C@]1(O)C[C@H]2CN(CCc3c([nH]c4ccccc34)[C@@](C(=O)OC)(c3cc4c(cc3OC)N(C=O)[C@H]3[C@@](O)(C(=O)OC)[C@H](OC(C)=O)[C@]5(CC)C=CCN6CC[C@]43[C@@H]65)C2)C1 [Vincristine sulfate] | – | 0.0036 | 1.98 | 101 | 76 | 79 | 81 | 0/5 | 2/5 | 3/8 | 7/8 | 8/8 | – | – | – | – | – | – | – | –
O=c1[nH]cc(F)c(=O)[nH]1 [Fluorouracil] | – | 36.8 | 244 | 59 | 117 | 74 | 69 | – | – | – | – | – | 0/5 | 1/5 | 1/5 | 2/5 | 2/6 | 3/5 | 5/6 | 6/6
